Laboratory results published in article PMC6326999, “Functionalized Magnetic Bacterial Cellulose Beads as Carrier for Lecitase® Ultra Immobilization” (Applied Biochemistry and Biotechnology, 2018).

Test system: T1, Lecitase® Ultra (LU)
T1 construct: gene LIP; commercial preparation (Sigma-Aldrich), free enzyme
Assay: absorbance at […] nm, hydrolysis initial rates, non-linear Michaelis-Menten fit
Type: biochemical
Settings: free enzyme; 50 mM Tris-Cl pH 8.5, 0.25% Triton X-100, 30 °C (standard assay); commercial preparation; kcat column headed 'Kcat × 10^3 (s^-1)'

**Q.** Which Km does the source give for `CCCCCCCCCCCCCCCC(=O)Oc1ccc([N+](=O)[O-])cc1` [4-nitrophenol palmitate] here?
**A.** 450 ± 50 µM
